Test results as given in patent publication US11117901B2, “Substituted pyrazolo[4,3-h]quinazolines as choline kinase inhibitors” (NERVIANO MEDICAL SCIENCES S.R.L., priority 2017, dated 2021).

Tests used:
Δ49N-hChoKα = target: T1, Δ49N-hChoKα (Homo sapiens, UniProt P35790); test: Biochemical kinase inhibition assay (Kinase-Glo luminescent) on Δ49N-hChoKα; settings: recombinant Δ49N-hChoKα 2.2 nM, ATP 5 μM, choline 5 μM, 60 min rt; read-out: ChoKα IC50
T1 construct: cDNA fragment 362-1534, corresponding to aminoacids 50 457; GST (N, cleaved yes); PreScission Protease recognition site (N); made in house; host or cells: Escherichia coli BL21pLysS (DE3)
Procedure: (§1) HumanΔ49ChoKα ([…]Δ49N-hChoKα) cDNA fragment 362-1534, corresponding to aminoacids 50 457 (J. Mol. Biol. 2006, 364, 136-151), and hChoKβ full length (FL), corresponding to aminoacids 2-395 ((PLoS ONE 2009, 4, e7819), were amplified by PCR from human library and cloned, inserting upstream a Prescission Protease recognition site, in pDonor 221 vector, using the Gateway Technology® (Invitrogen). After sequence control, LR reaction was performed in the final expression pGEX 2Tg vector. Both the proteins were expressed in Escherichia coli BL21pLysS (DE3) strain in auto-induction (Kessler) medium in the presence of […] carbenicillin at 25° C. for 16 h. Cells were harvested by centrifugation, the pellet was re-suspended in Lysis buffer (50 mM Tris-HCl pH 7.8, 150 mM NaCl, 10% glycerol, 0.2% CHAPS, 20 mM DTT, Protease Inhibitor Cocktail Tablets from Roche Biochemicals) and lysed by Gaulin homogenizer (Niro Soavi). The lysate was cleared by centrifugation. The supernatant was added to GSH resin and let flow by gravity. The GSH resin was washed with 5 column volume (CV) of cold wash buffer (50 mM Tris-HCl pH 7.8, 150 mM NaCl, 10% glycerol), then with 10 CV of the same buffer containing 2 mM of DTT. Both GST-Δ49N-hChoKα and hChoKβ were subjected to on-column cleavage of the GST tag with Prescission Protease overnight. The eluted cleaved proteins were further purified by ion exchange (ResQ 6 mL chromatography column from GE healthcare) with a gradient from 50 to 500 mM NaCl in 30 CV. The fractions containing […]Δ49N-hChoKα or hChoKβ were pooled, concentrated and gel filtered on a Superdex200 16/60 (GE Healthcare). The final protein concentration was estimated using the Bradford assay. All the samples purified were resolved by SDS-PAGE.
(§2) Biochemical Kinase inhibition Assay on Δ49N-hChoKα and hChoKβFL
(§3) The biochemical activity of compounds against Δ49N-ChoKα and ChoK3 FL were determined using the Kinase-Glo™ Luminescent Kinase Assay (Promega cat. V6711). The assay is based on incubation of the recombinant Δ49N-hChoKα and hChoKβ FL produced in house, 2.2 nM and 30 nM, respectively, with the specific substrates, choline (Sigma-Aldrich-C7017) and ATP, followed by quantification, at the end of reaction time, of the residual not reacted ATP.
(§4) Compounds were 3-fold serially diluted from 10 to 0.0005 μM, then incubated for 60 minutes at room temperature in the presence of ATP 5 μM, choline (5 μM for ChoKα and 20 μM for ChoKβ) and enzyme in a final volume of 19 μL of kinase buffer (50 mM Hepes pH 7.5, 10 mM MgCl2, 1 mM DTT, 3 μM Na3VO4 and 0.2 mg/mL BSA). The final concentration of DMSO was 1%. The assay was run in a robotized format on 384-well plates (Perkin Elmer cat. #6005301).
(§5) At the end of the incubation, an amount of 19 μL of KinaseGlo Reagent was added to each well to stop the reaction and after 30 minutes the luminescence signal was measured using ViewLux reader (Perkin Elmer).
(§6) All information about plate dilution, distribution and raw data of inhibition are tracked via barcode reading and stored in an Oracle DB. The data per each molecule are analyzed by an internally customized version of the SW package “Assay Explorer” which provides sigmoidal fittings of the ten-dilution curves for IC50 determination using a 4 parameter logistic equation: y=bottom+(top−bottom)/(1+10^((log IC50−x)*slope)) where x is the logarithm of the inhibitor concentration, y is the response; y starts at bottom and goes to top with a sigmoid shape.

hChoKβ FL = target: T2, hChoKβ FL (Homo sapiens, UniProt Q9Y259); test: Biochemical kinase inhibition assay (Kinase-Glo luminescent) on hChoKβ FL; settings: recombinant hChoKβ FL 30 nM, ATP 5 μM, choline 20 μM, 60 min rt; read-out: ChoKβ IC50
T2 construct: hChoKβ full length (FL), corresponding to aminoacids 2-395; GST (N, cleaved yes); PreScission Protease recognition site (N); made in house; host or cells: Escherichia coli BL21pLysS (DE3)
Procedure: as §1, §2, §3, §4, §5, §6

T2 sequence (Q9Y259 2-395): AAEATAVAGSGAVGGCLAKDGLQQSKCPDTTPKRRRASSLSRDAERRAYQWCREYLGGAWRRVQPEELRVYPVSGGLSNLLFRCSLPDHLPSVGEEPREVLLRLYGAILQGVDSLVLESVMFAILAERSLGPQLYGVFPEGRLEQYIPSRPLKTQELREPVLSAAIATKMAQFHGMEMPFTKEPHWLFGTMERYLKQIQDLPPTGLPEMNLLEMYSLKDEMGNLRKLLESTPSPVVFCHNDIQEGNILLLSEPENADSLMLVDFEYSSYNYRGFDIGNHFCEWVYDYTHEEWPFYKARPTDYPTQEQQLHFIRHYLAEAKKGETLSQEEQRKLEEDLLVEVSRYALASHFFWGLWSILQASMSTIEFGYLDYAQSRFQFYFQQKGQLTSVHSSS
T1 sequence (P35790 50-439 isoform P35790-2): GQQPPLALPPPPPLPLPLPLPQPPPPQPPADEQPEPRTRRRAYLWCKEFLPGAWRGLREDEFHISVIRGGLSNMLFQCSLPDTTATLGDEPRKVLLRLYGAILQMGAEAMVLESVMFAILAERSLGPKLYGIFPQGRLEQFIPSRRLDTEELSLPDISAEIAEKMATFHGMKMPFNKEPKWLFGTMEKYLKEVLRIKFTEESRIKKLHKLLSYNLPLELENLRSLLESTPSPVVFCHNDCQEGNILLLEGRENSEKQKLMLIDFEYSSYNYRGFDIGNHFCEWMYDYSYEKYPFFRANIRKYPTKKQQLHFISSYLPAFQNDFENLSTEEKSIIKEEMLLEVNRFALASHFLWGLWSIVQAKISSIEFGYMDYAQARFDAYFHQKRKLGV

With `CN(C)[C@@H]1CCN(Cc2csc(NC(=O)c3n[nH]c4c3C(C)(C)Cc3cnc(N)nc3-4)n2)C1` [compound 148] the IC50 (Δ49N-hChoKα) was 357 nM and the IC50 (hChoKβ FL) was 1100 nM.

`COc1ccc(NC(=O)c2n[nH]c3c2C(C)(C)Cc2cnc(N)nc2-3)cc1` [compound 2] showed an IC50 (Δ49N-hChoKα) of 247 nM and an IC50 (hChoKβ FL) of 974 nM.

For `COc1cccc(NC(=O)c2n[nH]c3c2C(C)(C)Cc2cnc(N)nc2-3)c1` [compound 1], the IC50 (Δ49N-hChoKα) was 257 nM and the IC50 (hChoKβ FL) was 1580 nM.

For `CN(C)C1CCN(C(=O)Cc2csc(NC(=O)c3n[nH]c4c3C(C)(C)Cc3cnc(N)nc3-4)n2)CC1` [compound 89], the IC50 (Δ49N-hChoKα) was 10 nM and the IC50 (hChoKβ FL) was 400 nM.

`CC1(C)Cc2cnc(N)nc2-c2[nH]nc(C(=O)N3CCC(N4CCCC4)CC3)c21` [compound 36] showed an IC50 (Δ49N-hChoKα) of 480 nM and an IC50 (hChoKβ FL) of over 10000 nM.

`CN(C)[C@@H]1CCN(C(=O)Cc2cccc(NC(=O)c3n[nH]c4c3C(C)(C)Cc3cnc(N)nc3-4)c2)C1` [compound 142] gave an IC50 (Δ49N-hChoKα) of 110 nM and an IC50 (hChoKβ FL) of 671 nM.

For `CC1(C)Cc2cnc(N)nc2-c2[nH]nc(C(=O)Nc3nc(CC(N)=O)cs3)c21` [compound 94], the IC50 (Δ49N-hChoKα) was 73 nM and the IC50 (hChoKβ FL) was 1420 nM.

Compound `CC1(C)Cc2cnc(N)nc2-c2[nH]nc(C(=O)Nc3nc(COC4CCN(Cc5ccccc5)CC4)cs3)c21` [compound 213] has an IC50 (Δ49N-hChoKα) of 16 nM and an IC50 (hChoKβ FL) of 450 nM.

`Cn1nc(C(=O)Nc2nc(CC(=O)N3CCC(N4CCCCC4)CC3)cs2)c2c1-c1nc(N)ncc1CC2(C)C` [compound 108] was tested, and the IC50 (Δ49N-hChoKα) was 5 nM and the IC50 (hChoKβ FL) was 3970 nM.

`CC1(C)Cc2cnc(N)nc2-c2[nH]nc(C(=O)Nc3cccc(C(=O)NC4CCCCC4)c3)c21` [compound 25] gave an IC50 (Δ49N-hChoKα) of 253 nM and an IC50 (hChoKβ FL) of 625 nM.

`CC1(C)Cc2cnc(N)nc2-c2[nH]nc(C(=O)Nc3ncc(C(=O)N4CCC(N5CCCCC5)CC4)s3)c21` [compound 84] gave an IC50 (Δ49N-hChoKα) of 111 nM and an IC50 (hChoKβ FL) of 1330 nM.

Compound `CC1(C)Cc2cnc(N)nc2-c2[nH]nc(C(=O)Nc3nc(CC(=O)N4CC[C@@H]([N+](C)(C)[O-])C4)cs3)c21` [compound 154] has an IC50 (Δ49N-hChoKα) of 14 nM and an IC50 (hChoKβ FL) of 564 nM.

In the case of `CC1CCN(C2CCN(Cc3cccc(NC(=O)c4nn(C)c5c4C(C)(C)Cc4cnc(N)nc4-5)c3)CC2)CC1` [compound 111], the IC50 (Δ49N-hChoKα) is reported as 640 nM and the IC50 (hChoKβ FL) is reported as over 10000 nM.

`CC1(C)Cc2cnc(N)nc2-c2[nH]nc(C(=O)Nc3nc(COC4CCN(CC5CCCCC5)CC4)cs3)c21` [compound 212] was tested, and the IC50 (Δ49N-hChoKα) was 8 nM and the IC50 (hChoKβ FL) was 457 nM.

Compound `CCOC(=O)Cc1ccc(NC(=O)c2n[nH]c3c2C(C)(C)Cc2cnc(N)nc2-3)cc1` [compound 96] has an IC50 (Δ49N-hChoKα) of 198 nM and an IC50 (hChoKβ FL) of 934 nM.

`CC(C)=CC(=O)CC(C)(C)NC(=O)Cc1csc(NC(=O)c2n[nH]c3c2C(C)(C)Cc2cnc(N)nc2-3)n1` [compound 220] was tested, and the IC50 (Δ49N-hChoKα) was 30 nM and the IC50 (hChoKβ FL) was 1380 nM.

`Cc1nc(NC(=O)c2n[nH]c3c2C(C)(C)Cc2cnc(N)nc2-3)sc1C(=O)NC1CCCCC1` [compound 77] showed an IC50 (Δ49N-hChoKα) of 200 nM and an IC50 (hChoKβ FL) of 1160 nM.

Compound `CC1(C)Cc2cnc(N)nc2-c2[nH]nc(C(=O)Nc3nc(CC(=O)N4CCC(N5CCC(F)(F)CC5)CC4)cs3)c21` [compound 229] has an IC50 (Δ49N-hChoKα) of 18 nM and an IC50 (hChoKβ FL) of 840 nM.

`CC1(C)Cc2cnc(N)nc2-c2[nH]nc(C(=O)Nc3nc(CC(=O)N4CCN(c5ccccc5)CC4)cs3)c21` [compound 160] showed an IC50 (Δ49N-hChoKα) of 25 nM and an IC50 (hChoKβ FL) of 2210 nM.

Work on `CC1(C)Cc2cnc(N)nc2-c2[nH]nc(C(=O)Nc3ccc(C(=O)NC4CC4)cc3)c21` [compound 31] yielded an IC50 (Δ49N-hChoKα) of 257 nM and an IC50 (hChoKβ FL) of 431 nM.

With `CCOC(=O)c1ccc(NC(=O)c2n[nH]c3c2C(C)(C)Cc2cnc(N)nc2-3)cc1` [compound 5] the IC50 (Δ49N-hChoKα) was 481 nM and the IC50 (hChoKβ FL) was 2590 nM.

`CC1(C)Cc2cnc(N)nc2-c2[nH]nc(C(=O)Nc3nc(CC(=O)N4CCC(O)CC4)cs3)c21` [compound 92] showed an IC50 (Δ49N-hChoKα) of 228 nM and an IC50 (hChoKβ FL) of over 10000 nM.

`CC1(C)Cc2cnc(N)nc2-c2[nH]nc(C(=O)Nc3ccc(C(=O)Nc4ccc(CN5CCCCC5)cc4)cc3)c21` [compound 59] gave an IC50 (Δ49N-hChoKα) of 32 nM and an IC50 (hChoKβ FL) of 734 nM.

`CC1(C)Cc2cnc(N)nc2-c2[nH]nc(C(=O)Nc3nccs3)c21` [compound 61] gave an IC50 (Δ49N-hChoKα) of 241 nM and an IC50 (hChoKβ FL) of 2630 nM.
